What was measured:
[1] = system: phospho-ERK (MAPK) in the presence of VEGF; assay: Immunofluorescence assay phospho-ERK + VEGF; format: cell-based, human; settings: FIG. 3G, compared with the vehicle alone
Protocol: Immunofluorescence was performed on drug-treated cells to assess the post-translational modification status of proteins involved in the pathways of interest. We constructed assays designed to measure the phosphorylation status of key signaling proteins in the absence and presence of a growth factor stimulus. A drug capable of blocking or inhibiting the pathway leading to the signaling protein would in principle cause a decrease in the phosphorylation of that signaling protein in response to the selected growth factor. Such a change in phosphorylation status could be measured by a decrease in fluorescence in the presence of the drug. […]
HEK293T cells were seeded at a density of 7,500/well in poly-D-lys coated, blackwalled 96 well plate (Greiner). […] Phosphorylated ERK was detected by incubating the fixed cells with rabbit phospho-ERK (T202/Y204)-specific antibodies (Cell Signaling Technologies) followed by Alexa488 conjugated goat anti-rabbit antibody (Molecular Probes). […] Fluorescence images were acquired on a Discovery-1 imaging station (Molecular Devices) as described above.
Background fluorescence due to nonspecific binding by the secondary antibody was established with the use of cells that were incubated with BSA/PBS and without primary antibodies. […]

[2] = system: non-small cell lung carcinoma (A549) cells; assay: MTT proliferation assay, NSCLC; format: cell-based, Human; settings: Homo sapiens, Tumor Cell NSCLC (A549), 120 hours, read-out: Anti-proliferative IC-50
Protocol: Cells were maintained in various media as follows: A549, LoVo and PC-3 (Ham's F12K medium with 2 mM L-glutamine and 1.5 g/L sodium bicarbonate), MIA PaCa-2 (Dulbecco's modified Eagle's medium with 4 mM L-glutamine and 4.5 g/L glucose), U87-MG (MEM+Earle's BSS). Medium for each cell line was supplemented with 10% FBS and […] Penecillin/Streptomycin. All cells were grown in incubators set at 37° C., 5% CO2. Thiazolyl Blue Tetrazolium Bromide (MTT) based proliferation assays were performed to assess the anti-proliferative activities of the compounds on these cells. Cells were seeded in 96 well plates at a density of 750 cells/well 24 hours prior to compound treatment. The cells were incubated with varying concentrations of compounds for 120 hours. […] Drug treatment was performed in 5 replicate wells. Background absorbance was established by wells containing medium but no cells. Vehicle (DMSO) only was used as control. MTT (Sigma-Aldrich, St. Louis, Mo.) was added to each well at a final concentration of 0.5 mg/ml. Following a 2 hour incubation at 37° C., medium in the wells was replaced with 0.15 ml DMSO. The plates were agitated for 15 min using a microtiter plate shaker.

IC50 [2]: 0.66 µM
Compound: O=C(Nc1ccc([N+](=O)[O-])cc1Cl)c1cc(Cl)ccc1O [Niclosamide]
level of phospho-ERK (intensity of the fluorescence) [1]: decrease in the level of phospho-ERK
